Assay results as given in PMC7914897, “Cytotoxic Potential of a-Azepano- and 3-Amino-3,4-SeCo-Triterpenoids” (International Journal of Molecular Sciences, 2021).

What was measured:
Details in all cases: Homo sapiens
HT29 (Colon cancer) = test: NCI-60 screen (SRB, 48 h)
LOX IMVI (Melanoma) = test: NCI-60 screen (SRB, 48 h); type: cell-based
TK-10 (Renal cancer) = test: NCI-60 screen (SRB, 48 h)
[1] = tested on: NCI-H460 (NSC lung cancer); test: NCI-60 screen (SRB, 48 h)
OVCAR-8 (Ovarian cancer) = test: NCI-60 screen (SRB, 48 h)
HS 578T (Breast cancer) = test: NCI-60 screen (SRB, 48 h)
OVCAR-4 (Ovarian cancer) = test: NCI-60 screen (SRB, 48 h); type: cell-based
[2] = tested on: NCI-H23 (NSC lung cancer); test: NCI-60 screen (SRB, 48 h)
SF-539 (CNS cancer) = test: NCI-60 screen (SRB, 48 h)
BT-549 (Breast cancer) = test: NCI-60 screen (SRB, 48 h); type: cell-based
Ovarian Cancer subpanel = test: NCI-60 screen, subpanel
Leukemia subpanel = test: cells
HOP-62 (NSC lung cancer) = test: NCI-60 screen (SRB, 48 h)
[3] = tested on: MDA-MB-468 (Breast cancer); test: cells
SK-MEL-5 (Melanoma) = test: NCI-60 screen (SRB, 48 h)
OVCAR-3 (Ovarian cancer) = test: cells
DU-145 (Prostate cancer) = test: NCI-60 screen (SRB, 48 h)
MOLT-4 (Leukemia) = test: NCI-60 screen (SRB, 48 h)
Breast cancer subpanel = test: NCI-60 screen, subpanel
U251 (CNS cancer) = test: NCI-60 screen (SRB, 48 h)
[4] = tested on: NCI/ADR-RES (Ovarian cancer); test: NCI-60 screen (SRB, 48 h)
SK-MEL-28 (Melanoma) = test: NCI-60 screen (SRB, 48 h)
SF-268 (CNS cancer) = test: NCI-60 screen (SRB, 48 h)
MDA-MB-435 (Melanoma) = test: NCI-60 screen (SRB, 48 h); type: cell-based
Colon Cancer subpanel = test: NCI-60 screen, subpanel

C=C(C)[C@@H]1CC[C@]2(C)[C@H](CC=C3[C@@H]4[C@@H](C)[C@H](C)CC[C@]4(CO)CC[C@]32C)[C@@]1(C)CCCN [Compound 19]
GI50 (HT29 (Colon cancer); HT-29): 990 nM
IC (TGI) (HT29 (Colon cancer); HT-29, 48 h, read-out: TGI): 2040 nM
CC50 (HT29 (Colon cancer); HT-29, read-out: LC50): 4220 nM
IC (TGI) (LOX IMVI (Melanoma); 48 h): 1570 nM
activity at 10 µM (LOX IMVI (Melanoma); 48 h, 1 dose 10 µM, read-out: Growth % of the Most Sensitive Cell Lines): -99%
GI50 (LOX IMVI (Melanoma); read-out: GI50): 860 nM
CC50 (LOX IMVI (Melanoma); read-out: LC50 (the source's name)): 2860 nM
GI50 (TK-10 (Renal cancer); TK-10): 2210 nM
IC (TGI) (TK-10 (Renal cancer); TK-10, 48 h, read-out: TGI): 9750 nM
CC50 (TK-10 (Renal cancer); TK-10, read-out: LC50): 24600 nM
GI50 ([1]; NCI-H460): 910 nM
IC (TGI) ([1]; NCI-H460, 48 h, read-out: TGI): 1710 nM
CC50 ([1]; NCI-H460, read-out: LC50): 3190 nM
GI50 (OVCAR-8 (Ovarian cancer); OVCAR-8): 1160 nM
IC (TGI) (OVCAR-8 (Ovarian cancer); OVCAR-8, 48 h, read-out: TGI): 2800 nM
CC50 (OVCAR-8 (Ovarian cancer); OVCAR-8, read-out: LC50): > 50000 nM
GI50 (HS 578T (Breast cancer)): 990 nM
IC (TGI) (HS 578T (Breast cancer); 48 h, read-out: TGI): 2230 nM
CC50 (HS 578T (Breast cancer); read-out: LC50): 5000 nM
IC (TGI) (OVCAR-4 (Ovarian cancer); OVCAR-4, 48 h): 2850 nM
GI50 (OVCAR-4 (Ovarian cancer); OVCAR-4, read-out: GI50): 860 nM
CC50 (OVCAR-4 (Ovarian cancer); OVCAR-4, read-out: LC50 (the source's name)): 25000 nM
GI50 ([2]; NCI-H23): 1340 nM
IC (TGI) ([2]; NCI-H23, 48 h, read-out: TGI): 4000 nM
CC50 ([2]; NCI-H23, read-out: LC50): 17500 nM
GI50 (SF-539 (CNS cancer); SF-539): 950 nM
IC (TGI) (SF-539 (CNS cancer); SF-539, 48 h, read-out: TGI): 1730 nM
CC50 (SF-539 (CNS cancer); SF-539, read-out: LC50): 3170 nM
GI50 (BT-549 (Breast cancer); BT-549): 2560 nM
IC (TGI) (BT-549 (Breast cancer); BT-549, 48 h): 9230 nM
CC50 (BT-549 (Breast cancer); BT-549, read-out: LC50 (the source's name)): 23300 nM
IC (TGI) (Ovarian Cancer subpanel; 48 h, read-out: TGI MG_MID): 4200 nM
GI50 (Ovarian Cancer subpanel; read-out: GI50 MG_MID): 1570 nM
CC50 (Ovarian Cancer subpanel; read-out: LC50 MG_MID): 19700 nM
IC (TGI) (Leukemia subpanel; 48 h, read-out: TGI MG_MID): 3810 nM
GI50 (Leukemia subpanel; read-out: GI50 MG_MID): 1230 nM
CC50 (Leukemia subpanel; read-out: LC50 MG_MID): 33200 nM
GI50 (HOP-62 (NSC lung cancer); HOP-62): 1080 nM
IC (TGI) (HOP-62 (NSC lung cancer); HOP-62, 48 h, read-out: TGI): 2360 nM
CC50 (HOP-62 (NSC lung cancer); HOP-62, read-out: LC50): > 50000 nM
GI50 ([3]; MDA-MB-468): 820 nM
IC (TGI) ([3]; MDA-MB-468, 48 h, read-out: TGI): 1660 nM
CC50 ([3]; MDA-MB-468, read-out: LC50): 3360 nM
GI50 (SK-MEL-5 (Melanoma); SK-MEL-5): 910 nM
IC (TGI) (SK-MEL-5 (Melanoma); SK-MEL-5, 48 h, read-out: TGI): 1650 nM
CC50 (SK-MEL-5 (Melanoma); SK-MEL-5, read-out: LC50): 3000 nM
GI50 (OVCAR-3 (Ovarian cancer); OVCAR-3): 930 nM
IC (TGI) (OVCAR-3 (Ovarian cancer); OVCAR-3, 48 h, read-out: TGI): 1790 nM
CC50 (OVCAR-3 (Ovarian cancer); OVCAR-3, read-out: LC50): 3440 nM
GI50 (DU-145 (Prostate cancer); DU-145): 1210 nM
IC (TGI) (DU-145 (Prostate cancer); DU-145, 48 h, read-out: TGI): 3010 nM
CC50 (DU-145 (Prostate cancer); DU-145, read-out: LC50): 11300 nM
GI50 (MOLT-4 (Leukemia); MOLT-4): 1350 nM
IC (TGI) (MOLT-4 (Leukemia); MOLT-4, 48 h, read-out: TGI): 4070 nM
CC50 (MOLT-4 (Leukemia); MOLT-4, read-out: LC50): 27900 nM
IC (TGI) (Breast cancer subpanel; 48 h, read-out: TGI MG_MID): 3620 nM
GI50 (Breast cancer subpanel; read-out: GI50 MG_MID): 1280 nM
CC50 (Breast cancer subpanel; read-out: LC50 MG_MID): 16900 nM
GI50 (U251 (CNS cancer); U-251): 920 nM
IC (TGI) (U251 (CNS cancer); U-251, 48 h, read-out: TGI): 1820 nM
GI50 [4]: 990 nM
IC (TGI) ([4]; 48 h, read-out: TGI): 2170 nM
CC50 ([4]; read-out: LC50): 4770 nM
GI50 (SK-MEL-28 (Melanoma); SK-MEL-28): 950 nM
IC (TGI) (SK-MEL-28 (Melanoma); SK-MEL-28, 48 h, read-out: TGI): 1670 nM
CC50 (SK-MEL-28 (Melanoma); SK-MEL-28, read-out: LC50): 2940 nM
GI50 (SF-268 (CNS cancer); SF-268): 1220 nM
IC (TGI) (SF-268 (CNS cancer); SF-268, 48 h, read-out: TGI): 2690 nM
CC50 (SF-268 (CNS cancer); SF-268, read-out: LC50): 14800 nM
GI50 (MDA-MB-435 (Melanoma); MDA-MB-435): 950 nM
IC (TGI) (MDA-MB-435 (Melanoma); MDA-MB-435, 48 h, read-out: TGI): 1810 nM
CC50 (MDA-MB-435 (Melanoma); MDA-MB-435, read-out: LC50 (the source's name)): 3450 nM
IC (TGI) (Colon Cancer subpanel; 48 h, read-out: TGI MG_MID): 1800 nM
GI50 (Colon Cancer subpanel; read-out: GI50 MG_MID): 900 nM
CC50 (Colon Cancer subpanel; read-out: LC50 MG_MID): 3630 nM
